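Five compound concentrations were applied to cells in 96-well plates for 48 hours; endpoints were derived by simple linear interpolation of the resulting dose-response curve. Abbreviation: GI50, concentration required for 50% inhibition of growth.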 Calls of active or inactive are those of the source. Rule as the data show it: active = GI50 up to about 1.1 µM and inactive = higher.
How the values were obtained:
Assay in all cases: NCI tumour cell line growth inhibition, 48 h
NCI-H522 = test system: NCI-H522
RXF 393 = test system: RXF 393
SF-295 = test system: SF-295
MOLT-4 = test system: MOLT-4
U-251 = test system: U-251
COLO 205 = test system: COLO 205
M14 = test system: M14
RPMI-8226 = test system: RPMI-8226
LOX IMVI = test system: LOX IMVI
NCI-H226 = test system: NCI-H226
HCT-15 = test system: HCT-15
K562 = test system: K562
UO-31 = test system: UO-31
OVCAR-3 = test system: OVCAR-3
EKVX = test system: EKVX

SMILES	GI50 (NCI-H522)	GI50 (RXF 393)	GI50 (SF-295)	GI50 (MOLT-4)	GI50 (U-251)	GI50 (COLO 205)	GI50 (M14)	GI50 (RPMI-8226)	GI50 (LOX IMVI)	GI50 (NCI-H226)	GI50 (HCT-15)	GI50 (K562)	GI50 (UO-31)	GI50 (OVCAR-3)	GI50 (EKVX)
Nc1ncnc2c1ncn2[C@]1(CO)C=C(CO)C(O)C1O (stereo not given in full)	> 100 µM (inactive)	> 100 µM (inactive)	> 100 µM (inactive)	> 100 µM (inactive)	> 100 µM (inactive)	> 100 µM (inactive)	> 100 µM (inactive)	> 100 µM (inactive)	> 100 µM (inactive)	> 100 µM (inactive)	> 100 µM				
CC(C)=CC1CC(=O)C1(C)Sc1ccccc1 (stereo not given)	24 µM (inactive)	26.2 µM (inactive)	> 100 µM (inactive)	34.4 µM (inactive)	67 µM (inactive)	23.1 µM (inactive)	96.4 µM (inactive)	20.6 µM (inactive)	17.3 µM (inactive)	34.4 µM (inactive)	17.3 µM	21.9 µM (inactive)	50.2 µM (inactive)	52.4 µM (inactive)	54.2 µM (inactive)
COc1cc(C(C)O)c[n+](CCC2CNc3ccccc32)c1 (stereo not given)	> 100 µM (inactive)		> 100 µM (inactive)	> 100 µM (inactive)	> 100 µM (inactive)	43.3 µM (inactive)	> 100 µM (inactive)	> 100 µM (inactive)	> 100 µM (inactive)	73.1 µM (inactive)	> 100 µM	> 100 µM (inactive)	> 100 µM (inactive)	26.1 µM (inactive)	33 µM (inactive)
CC(C)COC1Sc2ccccc2S1		18.2 µM (inactive)	16.4 µM (inactive)	5.05 µM (inactive)	18.7 µM (inactive)	32.4 µM (inactive)	20.6 µM (inactive)	5.45 µM (inactive)	12.7 µM (inactive)		22.4 µM		15.5 µM (inactive)	19.6 µM (inactive)	20 µM (inactive)
O=C(Nc1c(O)[nH]c(=S)[nH]c1=O)c1ccco1	> 100 µM (inactive)		> 100 µM (inactive)	> 100 µM (inactive)	> 100 µM (inactive)	> 100 µM (inactive)	> 100 µM (inactive)	> 100 µM (inactive)	> 100 µM (inactive)	> 100 µM (inactive)	> 100 µM	> 100 µM (inactive)	> 100 µM (inactive)	> 100 µM (inactive)	
O=C(N/C(=C\c1ccc(/C=C(\NC(=O)c2ccccc2)c2nc3c(O)nc(S)nc3[nH]2)cc1)c1nc2c(O)nc(S)nc2[nH]1)c1ccccc1	14.6 µM (inactive)	38.6 µM (inactive)	> 100 µM (inactive)	43 µM (inactive)	> 100 µM (inactive)	> 100 µM (inactive)	> 100 µM (inactive)	29.4 µM (inactive)	38 µM (inactive)		> 100 µM	30.3 µM (inactive)	> 100 µM (inactive)	> 100 µM (inactive)	> 100 µM (inactive)
O/N=C1/CCC/C1=C\c1ccccc1	31 µM (inactive)	96.6 µM (inactive)	> 100 µM (inactive)	42.6 µM (inactive)	> 100 µM (inactive)	> 100 µM (inactive)	> 100 µM (inactive)	> 100 µM (inactive)	> 100 µM (inactive)	> 100 µM (inactive)	> 100 µM	74.1 µM (inactive)	> 100 µM (inactive)	> 100 µM (inactive)	21.9 µM (inactive)
C=C(Br)C(C)(Cl)CCC(Br)C(C)(C)Br (stereo not given)	43.8 µM (inactive)	22.4 µM (inactive)	47.2 µM (inactive)	31 µM (inactive)	88.9 µM (inactive)	57 µM (inactive)	50.4 µM (inactive)	25.9 µM (inactive)	16.6 µM (inactive)	> 100 µM (inactive)	67 µM	27.4 µM (inactive)	84.3 µM (inactive)		
Nc1nc2c3c(ncn3CC(O)CO2)n1 (stereo not given)	> 100 µM (inactive)	> 100 µM (inactive)	> 100 µM (inactive)	> 100 µM (inactive)	> 100 µM (inactive)	> 100 µM (inactive)	> 100 µM (inactive)	> 100 µM (inactive)	> 100 µM (inactive)	> 100 µM (inactive)	> 100 µM	> 100 µM (inactive)	> 100 µM (inactive)	> 100 µM (inactive)	
Cc1ccc(NC(=O)CCc2nc(N)nc(N)c2-c2ccccc2)cc1C	> 100 µM (inactive)		> 100 µM (inactive)	> 100 µM (inactive)	> 100 µM (inactive)	> 100 µM (inactive)	> 100 µM (inactive)	> 100 µM (inactive)		> 100 µM (inactive)	> 100 µM	> 100 µM (inactive)	> 100 µM (inactive)	> 100 µM (inactive)	> 100 µM (inactive)
CN(C)C(=O)c1ccc([N+](=O)[O-])cc1	> 100 µM (inactive)	> 100 µM (inactive)	> 100 µM (inactive)	> 100 µM (inactive)	> 100 µM (inactive)	> 100 µM (inactive)	> 100 µM (inactive)		> 100 µM (inactive)	> 100 µM (inactive)	> 100 µM	> 100 µM (inactive)	> 100 µM (inactive)	> 100 µM (inactive)	> 100 µM (inactive)
N#C/C(=C\c1ccc(O)c(O)c1)c1c(C#N)c(N)nn1-c1ccccc1	3.32 µM (inactive)		15.7 µM (inactive)		5.36 µM (inactive)	24.1 µM (inactive)	9.29 µM (inactive)		5.05 µM (inactive)		11.7 µM	3.94 µM (inactive)	6.47 µM (inactive)	2.04 µM (inactive)	7.45 µM (inactive)
Cc1cc(O)cc2oc(=O)c3c(O)cc(O)cc3c12 [ALTERNARIOL]	13.4 µM (inactive)	23.3 µM (inactive)	26.3 µM (inactive)	7.59 µM (inactive)	28.5 µM (inactive)	27.4 µM (inactive)	60 µM (inactive)		16.1 µM (inactive)	19.5 µM (inactive)	18.2 µM	36.6 µM (inactive)	34.6 µM (inactive)	23 µM (inactive)	6.71 µM (inactive)
Cc1ccc(S(=O)(=O)OCC23CCC(C2)C2CC23)cc1 (stereo not given)			> 100 µM (inactive)	> 100 µM (inactive)	> 100 µM (inactive)	> 100 µM (inactive)	> 100 µM (inactive)	90.4 µM (inactive)	> 100 µM (inactive)	> 100 µM (inactive)	> 100 µM	> 100 µM (inactive)	> 100 µM (inactive)	> 100 µM (inactive)	
CC1(C)OC2CC3COC(=O)C3CC2O1 (stereo not given)	> 100 µM (inactive)		> 100 µM (inactive)	> 100 µM (inactive)	> 100 µM (inactive)	> 100 µM (inactive)	> 100 µM (inactive)	> 100 µM (inactive)	> 100 µM (inactive)	> 100 µM (inactive)	> 100 µM	> 100 µM (inactive)	> 100 µM (inactive)	> 100 µM (inactive)	> 100 µM (inactive)
CC12O[C@H](c3ccccc3)[C@H](c3ccccc3)N1C(=O)C1(C(=O)OCc3ccccc3)CC12 (stereo not given in full)	39.1 µM (inactive)		> 100 µM (inactive)	18.2 µM (inactive)		89.9 µM (inactive)	64.7 µM (inactive)		> 100 µM (inactive)	36 µM (inactive)	86.5 µM	37.3 µM (inactive)	41.2 µM (inactive)	> 100 µM (inactive)	

Source: ChEMBL document CHEMBL1201862, “PubChem BioAssay data set” (2004)
